The values that follow come from ChEMBL document CHEMBL4261500, “New tricks for human farnesyltransferase inhibitor: cancer and beyond” (Medchemcomm, 2017).

In assay [1] the target is Protein farnesyltransferase (Homo sapiens, UniProt P49354+P49356). Kind of assay: Inhibition of human EC17 cell-derived FTase using recombinant GST-tagged H-Ras/(3H)-FPP as substrate incubated for 1 hr by liquid scintillation counting method. Type of assay: protein-complex assay.
For another assay, the system named is A-431. Kind of assay: Cytotoxicity against human A431 cells. Type of assay: cell-based.
Assay [2] deals with Protein farnesyltransferase (Rattus norvegicus, UniProt Q02293+Q04631). The assay is described as follows: Inhibition of recombinant rat FTase alpha/beta expressed in Escherichia coli using NBD-FPP/GST-tagged H-Ras as substrate incubated for 2 hrs by SDS-PAGE method.
For the next assay, the system named is A549. The assay is described as follows: Cytotoxicity against human A549 cells assessed as decrease in cell viability after 48 hrs by MTT assay. Type of assay: functional, cell-based. Particulars: A549, 48 h.

The IC50 is the concentration that gives 50% inhibition. As for `CC[C@@]1(O)C[C@H](O[C@H]2C[C@H]([N+](C)(C)Cc3ccccc3)[C@@H](O[C@H]3C[C@H](O)[C@H](O[C@H]4CCC(=O)[C@H](C)O4)[C@H](C)O3)[C@H](C)O2)c2c(cc3c(c2O)C(=O)c2c(O)cccc2C3=O)[C@H]1C(=O)OC`, the values for the IC50 (in assay [1]; with A-431) were 860 nM and > 10000 nM, respectively.
`COC1=C(OC)[C@H](O)[C@H](C/C=C(\C)CC/C=C(\C)CCC=C(C)C)[C@@H](C)C1=O` [ANTROQUINONOL]: the results for the half-inhibitory concentration (IC50) (in assay [2]; in the assay on A549) were 2990 nM and 3240 nM, respectively.
